Results taken from ChEMBL document CHEMBL5291721, “A preclinical secondary pharmacology resource illuminates target-adverse drug reaction associations of marketed drugs” (Nat Commun, 2023).

What was measured:
Mu-type opioid receptor [1] = target: T1, Mu-type opioid receptor (Homo sapiens, UniProt P35372); experiment: biochemical; type: functional
[2] = target: Beta-1 adrenergic receptor (Homo sapiens, UniProt P08588); type: functional
[3] = target: T2, 5-hydroxytryptamine receptor 2B (Homo sapiens, UniProt P41595); type: functional, cell-based
T2 sequence (P41595 whole entry): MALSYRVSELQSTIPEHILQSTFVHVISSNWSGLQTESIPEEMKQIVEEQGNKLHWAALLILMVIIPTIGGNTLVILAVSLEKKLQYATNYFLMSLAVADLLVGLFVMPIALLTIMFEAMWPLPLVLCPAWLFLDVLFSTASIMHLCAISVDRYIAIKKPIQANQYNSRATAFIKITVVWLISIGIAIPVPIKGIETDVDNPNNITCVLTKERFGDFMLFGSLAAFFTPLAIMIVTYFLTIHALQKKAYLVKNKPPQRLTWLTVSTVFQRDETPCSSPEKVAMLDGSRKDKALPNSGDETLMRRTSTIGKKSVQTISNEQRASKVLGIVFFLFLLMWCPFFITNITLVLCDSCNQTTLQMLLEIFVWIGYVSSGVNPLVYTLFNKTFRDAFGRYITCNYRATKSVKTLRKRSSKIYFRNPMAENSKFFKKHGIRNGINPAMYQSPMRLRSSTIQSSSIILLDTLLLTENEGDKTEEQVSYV

D(1A) dopamine receptor [4] = target: T3, D(1A) dopamine receptor (Homo sapiens, UniProt P21728); type: functional, cell-based
T3 sequence (P21728 whole entry): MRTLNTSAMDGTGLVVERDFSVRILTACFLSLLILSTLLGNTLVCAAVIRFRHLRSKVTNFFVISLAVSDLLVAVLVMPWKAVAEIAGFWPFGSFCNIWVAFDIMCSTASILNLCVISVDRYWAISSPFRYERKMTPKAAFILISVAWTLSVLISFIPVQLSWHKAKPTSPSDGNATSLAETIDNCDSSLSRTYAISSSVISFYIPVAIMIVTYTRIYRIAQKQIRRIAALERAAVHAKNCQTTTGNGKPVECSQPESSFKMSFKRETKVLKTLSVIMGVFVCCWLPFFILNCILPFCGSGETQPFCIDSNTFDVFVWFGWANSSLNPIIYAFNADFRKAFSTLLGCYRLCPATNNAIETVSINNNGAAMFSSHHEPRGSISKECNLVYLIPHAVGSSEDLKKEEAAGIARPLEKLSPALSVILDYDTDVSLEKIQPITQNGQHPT

[5] = target: Gamma-aminobutyric acid receptor subunit alpha-1 (Rattus norvegicus, UniProt P62813)
Chain of Gamma-aminobutyric acid receptor subunit alpha-1 (P62813 whole entry): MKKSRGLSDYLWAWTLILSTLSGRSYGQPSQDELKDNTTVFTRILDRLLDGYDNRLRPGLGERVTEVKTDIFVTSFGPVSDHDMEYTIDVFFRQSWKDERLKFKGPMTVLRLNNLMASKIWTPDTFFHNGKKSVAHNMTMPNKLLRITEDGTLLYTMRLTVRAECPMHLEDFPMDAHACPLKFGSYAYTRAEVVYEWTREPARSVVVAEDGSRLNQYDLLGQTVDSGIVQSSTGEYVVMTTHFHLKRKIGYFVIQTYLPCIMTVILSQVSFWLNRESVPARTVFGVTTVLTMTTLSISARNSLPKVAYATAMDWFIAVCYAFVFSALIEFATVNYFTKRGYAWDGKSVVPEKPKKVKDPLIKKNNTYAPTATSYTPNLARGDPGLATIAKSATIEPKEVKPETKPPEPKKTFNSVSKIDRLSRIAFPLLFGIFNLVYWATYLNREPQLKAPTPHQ

[6] = target: Beta-2 adrenergic receptor (Homo sapiens, UniProt P07550)
Chain of Beta-2 adrenergic receptor (P07550 whole entry): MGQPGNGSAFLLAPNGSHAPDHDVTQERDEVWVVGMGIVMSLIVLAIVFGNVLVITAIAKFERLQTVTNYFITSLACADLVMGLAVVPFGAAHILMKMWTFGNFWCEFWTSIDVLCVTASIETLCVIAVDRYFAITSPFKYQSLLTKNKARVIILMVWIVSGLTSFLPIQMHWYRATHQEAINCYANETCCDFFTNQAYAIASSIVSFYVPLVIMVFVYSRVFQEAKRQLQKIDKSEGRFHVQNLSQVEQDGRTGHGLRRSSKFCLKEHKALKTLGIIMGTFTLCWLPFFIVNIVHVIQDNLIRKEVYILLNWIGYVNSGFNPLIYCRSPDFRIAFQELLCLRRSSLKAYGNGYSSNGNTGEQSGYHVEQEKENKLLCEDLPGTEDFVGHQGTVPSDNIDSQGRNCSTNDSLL

[7] = target: Muscarinic acetylcholine receptor M3 (Homo sapiens, UniProt P20309)
Chain of Muscarinic acetylcholine receptor M3 (P20309 whole entry): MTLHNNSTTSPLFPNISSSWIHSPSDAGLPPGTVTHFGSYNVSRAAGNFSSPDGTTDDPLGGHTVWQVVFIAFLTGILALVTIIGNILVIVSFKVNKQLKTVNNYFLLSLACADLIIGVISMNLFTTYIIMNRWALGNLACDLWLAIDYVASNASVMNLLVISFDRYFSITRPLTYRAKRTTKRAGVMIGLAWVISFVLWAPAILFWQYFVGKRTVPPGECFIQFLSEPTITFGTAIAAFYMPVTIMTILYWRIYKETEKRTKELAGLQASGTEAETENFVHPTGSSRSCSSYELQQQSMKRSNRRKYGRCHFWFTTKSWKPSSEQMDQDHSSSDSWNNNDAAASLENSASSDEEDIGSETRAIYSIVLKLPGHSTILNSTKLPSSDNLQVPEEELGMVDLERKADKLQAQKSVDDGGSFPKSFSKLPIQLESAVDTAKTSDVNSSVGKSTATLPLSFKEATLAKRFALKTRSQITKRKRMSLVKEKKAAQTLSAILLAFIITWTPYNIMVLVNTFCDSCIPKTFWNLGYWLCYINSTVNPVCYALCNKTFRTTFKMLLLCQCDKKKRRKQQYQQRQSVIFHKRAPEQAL

[8] = target: T4, 5-hydroxytryptamine receptor 1A (Homo sapiens, UniProt P08908); type: functional, cell-based
T4 sequence (P08908 whole entry): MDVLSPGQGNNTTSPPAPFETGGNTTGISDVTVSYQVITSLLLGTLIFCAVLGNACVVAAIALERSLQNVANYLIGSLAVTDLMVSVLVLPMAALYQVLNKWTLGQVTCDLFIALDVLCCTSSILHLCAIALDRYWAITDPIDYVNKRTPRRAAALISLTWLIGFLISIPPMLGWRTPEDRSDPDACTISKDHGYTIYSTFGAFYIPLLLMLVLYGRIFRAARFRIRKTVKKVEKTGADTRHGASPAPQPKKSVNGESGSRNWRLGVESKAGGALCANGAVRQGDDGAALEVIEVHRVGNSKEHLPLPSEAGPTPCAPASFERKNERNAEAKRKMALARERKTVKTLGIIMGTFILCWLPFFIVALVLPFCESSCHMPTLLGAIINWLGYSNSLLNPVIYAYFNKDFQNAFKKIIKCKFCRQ

[9] = target: Neuronal acetylcholine receptor subunit alpha-4 (Homo sapiens, UniProt P43681)
Chain of Neuronal acetylcholine receptor subunit alpha-4 (P43681 whole entry): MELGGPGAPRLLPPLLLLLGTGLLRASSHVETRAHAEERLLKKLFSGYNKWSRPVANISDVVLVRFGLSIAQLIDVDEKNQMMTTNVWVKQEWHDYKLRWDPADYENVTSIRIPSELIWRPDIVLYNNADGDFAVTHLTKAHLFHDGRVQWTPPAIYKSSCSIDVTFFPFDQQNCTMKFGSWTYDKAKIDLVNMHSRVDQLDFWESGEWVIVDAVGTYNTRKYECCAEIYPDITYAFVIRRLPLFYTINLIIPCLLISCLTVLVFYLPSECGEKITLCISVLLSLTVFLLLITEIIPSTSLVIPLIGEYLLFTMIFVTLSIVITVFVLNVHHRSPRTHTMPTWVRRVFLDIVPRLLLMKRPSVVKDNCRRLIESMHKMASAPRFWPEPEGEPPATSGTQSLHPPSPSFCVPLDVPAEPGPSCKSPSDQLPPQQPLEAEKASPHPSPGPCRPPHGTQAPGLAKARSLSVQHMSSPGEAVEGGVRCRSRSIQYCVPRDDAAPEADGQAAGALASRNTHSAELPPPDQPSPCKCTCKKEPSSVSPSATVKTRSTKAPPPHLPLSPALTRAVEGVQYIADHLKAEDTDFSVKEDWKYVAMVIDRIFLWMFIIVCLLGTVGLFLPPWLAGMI

Histamine H2 receptor = Histamine H2 receptor (Homo sapiens, UniProt P25021); type: functional, cell-based
D(3) dopamine receptor [10] = target: T5, D(3) dopamine receptor (Homo sapiens, UniProt P35462)
T5 sequence (P35462 whole entry): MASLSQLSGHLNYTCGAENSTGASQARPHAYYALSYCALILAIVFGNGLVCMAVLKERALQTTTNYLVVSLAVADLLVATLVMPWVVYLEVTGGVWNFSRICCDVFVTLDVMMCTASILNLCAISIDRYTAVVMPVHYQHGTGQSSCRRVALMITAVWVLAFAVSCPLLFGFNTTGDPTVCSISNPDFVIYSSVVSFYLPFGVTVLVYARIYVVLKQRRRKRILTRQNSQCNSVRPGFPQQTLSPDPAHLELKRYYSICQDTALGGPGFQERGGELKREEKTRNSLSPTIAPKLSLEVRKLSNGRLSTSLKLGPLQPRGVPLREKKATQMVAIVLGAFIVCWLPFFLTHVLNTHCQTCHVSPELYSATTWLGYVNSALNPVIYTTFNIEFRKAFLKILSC

D(1A) dopamine receptor [11] = target: T3, D(1A) dopamine receptor
Mu-type opioid receptor [12] = target: T1, Mu-type opioid receptor
D(3) dopamine receptor [13] = target: T5, D(3) dopamine receptor; remark: listed apart in the source
Adenosine receptor A3 = target: T6, Adenosine receptor A3 (Homo sapiens, UniProt P0DMS8)
T6 sequence (P0DMS8 whole entry): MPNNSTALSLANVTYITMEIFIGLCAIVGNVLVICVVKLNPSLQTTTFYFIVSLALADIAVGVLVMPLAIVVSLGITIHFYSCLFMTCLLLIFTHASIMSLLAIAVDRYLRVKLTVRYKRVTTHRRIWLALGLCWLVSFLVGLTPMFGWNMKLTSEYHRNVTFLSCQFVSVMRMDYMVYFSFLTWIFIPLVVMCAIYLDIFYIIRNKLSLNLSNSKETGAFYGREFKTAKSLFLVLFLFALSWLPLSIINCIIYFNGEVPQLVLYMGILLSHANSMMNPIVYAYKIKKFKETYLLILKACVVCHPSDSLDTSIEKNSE

[14] = target: T7, Alpha-2A adrenergic receptor (Homo sapiens, UniProt P08913)
T7 sequence (P08913 whole entry): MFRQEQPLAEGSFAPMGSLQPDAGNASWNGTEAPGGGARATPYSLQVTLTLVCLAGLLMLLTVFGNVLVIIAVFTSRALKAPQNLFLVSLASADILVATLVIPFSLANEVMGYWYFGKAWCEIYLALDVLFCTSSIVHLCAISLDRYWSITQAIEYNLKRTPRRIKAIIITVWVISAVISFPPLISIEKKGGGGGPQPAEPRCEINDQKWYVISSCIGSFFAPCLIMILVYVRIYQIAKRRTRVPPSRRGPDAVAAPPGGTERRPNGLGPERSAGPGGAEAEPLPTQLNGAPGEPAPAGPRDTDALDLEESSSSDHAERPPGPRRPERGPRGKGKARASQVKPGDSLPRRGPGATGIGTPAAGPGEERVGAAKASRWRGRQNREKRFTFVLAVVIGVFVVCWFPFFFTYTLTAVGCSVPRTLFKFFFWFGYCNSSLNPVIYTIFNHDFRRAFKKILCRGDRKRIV

[15] = target: T2, 5-hydroxytryptamine receptor 2B; type: functional, cell-based; remark: listed apart in the source
[16] = target: T8, Alpha-1A adrenergic receptor (Homo sapiens, UniProt P35348); type: functional, cell-based
T8 sequence (P35348 whole entry): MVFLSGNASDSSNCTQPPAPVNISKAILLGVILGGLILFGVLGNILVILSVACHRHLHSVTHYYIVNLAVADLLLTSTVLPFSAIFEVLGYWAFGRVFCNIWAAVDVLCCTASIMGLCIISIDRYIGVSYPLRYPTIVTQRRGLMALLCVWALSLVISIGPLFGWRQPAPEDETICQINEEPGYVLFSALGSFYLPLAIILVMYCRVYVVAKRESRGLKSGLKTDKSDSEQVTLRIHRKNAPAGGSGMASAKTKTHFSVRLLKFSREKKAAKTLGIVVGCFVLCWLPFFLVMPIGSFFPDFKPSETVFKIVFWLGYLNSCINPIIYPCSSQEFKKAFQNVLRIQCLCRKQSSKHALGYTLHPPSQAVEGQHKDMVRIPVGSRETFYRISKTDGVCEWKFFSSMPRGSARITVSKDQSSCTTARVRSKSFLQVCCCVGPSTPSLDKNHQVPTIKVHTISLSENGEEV

[17] = target: Prostaglandin G/H synthase 1 (Homo sapiens, UniProt P23219); type: functional
[18] = target: T4, 5-hydroxytryptamine receptor 1A
[19] = target: Sodium-dependent noradrenaline transporter (Homo sapiens, UniProt P23975)
Chain of Sodium-dependent noradrenaline transporter (P23975 whole entry): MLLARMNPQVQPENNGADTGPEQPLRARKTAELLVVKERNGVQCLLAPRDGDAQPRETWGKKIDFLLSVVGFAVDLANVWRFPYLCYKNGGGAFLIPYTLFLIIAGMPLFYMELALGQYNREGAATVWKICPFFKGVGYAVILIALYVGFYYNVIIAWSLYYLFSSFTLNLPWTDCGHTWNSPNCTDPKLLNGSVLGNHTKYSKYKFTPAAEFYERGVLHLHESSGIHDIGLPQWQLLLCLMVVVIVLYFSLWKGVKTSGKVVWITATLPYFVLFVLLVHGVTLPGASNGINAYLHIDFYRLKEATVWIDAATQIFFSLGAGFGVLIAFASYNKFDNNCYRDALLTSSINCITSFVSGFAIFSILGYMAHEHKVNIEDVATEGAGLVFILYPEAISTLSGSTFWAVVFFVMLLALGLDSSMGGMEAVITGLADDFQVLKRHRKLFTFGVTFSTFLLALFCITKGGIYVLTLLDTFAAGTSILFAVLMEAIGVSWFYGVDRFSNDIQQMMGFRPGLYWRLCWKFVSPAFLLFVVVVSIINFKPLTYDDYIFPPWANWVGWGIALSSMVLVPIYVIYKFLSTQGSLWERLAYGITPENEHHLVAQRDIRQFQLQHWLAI

Measured: AC50
Note: assay procedure not described here.

T1 sequence (P35372 whole entry): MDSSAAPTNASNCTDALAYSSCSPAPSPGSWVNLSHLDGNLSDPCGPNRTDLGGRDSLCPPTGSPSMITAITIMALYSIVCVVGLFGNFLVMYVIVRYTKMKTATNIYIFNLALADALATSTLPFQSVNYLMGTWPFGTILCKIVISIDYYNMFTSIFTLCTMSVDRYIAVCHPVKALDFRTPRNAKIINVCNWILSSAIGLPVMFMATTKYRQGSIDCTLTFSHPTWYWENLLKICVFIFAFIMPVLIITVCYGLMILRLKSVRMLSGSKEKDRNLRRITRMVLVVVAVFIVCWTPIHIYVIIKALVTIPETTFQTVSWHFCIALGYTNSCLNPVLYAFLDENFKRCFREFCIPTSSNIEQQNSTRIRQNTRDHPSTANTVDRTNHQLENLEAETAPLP
Chain of Beta-1 adrenergic receptor (P08588 whole entry): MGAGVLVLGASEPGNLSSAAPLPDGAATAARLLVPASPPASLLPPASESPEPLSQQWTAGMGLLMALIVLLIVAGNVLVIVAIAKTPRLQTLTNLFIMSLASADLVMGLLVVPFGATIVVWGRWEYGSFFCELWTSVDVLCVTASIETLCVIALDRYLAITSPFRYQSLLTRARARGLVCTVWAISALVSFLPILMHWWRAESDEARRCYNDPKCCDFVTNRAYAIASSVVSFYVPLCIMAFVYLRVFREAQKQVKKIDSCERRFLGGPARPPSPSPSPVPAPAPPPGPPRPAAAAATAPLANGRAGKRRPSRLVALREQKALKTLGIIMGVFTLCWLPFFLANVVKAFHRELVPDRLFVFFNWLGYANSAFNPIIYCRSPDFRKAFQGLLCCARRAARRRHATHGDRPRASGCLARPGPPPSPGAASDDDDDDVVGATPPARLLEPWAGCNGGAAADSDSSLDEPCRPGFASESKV

CCN(CC)C(=O)C1(c2ccccc2)CC1CN (stereo unspecified)
> 30 µM: Mu-type opioid receptor [1] | [2] | [3] | D(1A) dopamine receptor [4] | [5] | [6] | [7] | [8] | [9] | Histamine H2 receptor | D(3) dopamine receptor [10]

CN(C)C(=O)Oc1cccc([N+](C)(C)C)c1 [NEOSTIGMINE]
> 30 µM: D(1A) dopamine receptor [11] | Mu-type opioid receptor [12] | D(3) dopamine receptor [13] | Adenosine receptor A3 | [14] | [15] | [16] | [17] | [18] | [19]
